Measurements taken from ChEMBL document CHEMBL5236579, “Hydrophobicity Determines the Bacterial Killing Rate of α-Helical Antimicrobial Peptides and Influences the Bacterial Resistance Development” (J Med Chem, 2022).
Values after ≈ are worked out from the molar mass of the structure shown. Active and inactive are the calls of the source. The rule behind the calls is not given here. Where a SMILES comes first, the peptide text is derived from it.

Columns and labels:
[1] = system: Escherichia coli; assay: Antimicrobial activity against Escherichia coli ATCC27622 by two fold broth microdilution method; assay type: functional
[2] = system: Staphylococcus aureus; assay: Antimicrobial activity against Staphylococcus aureus ATCC25923 by two fold broth microdilution method; assay type: functional; details: read-out: MIC
[3] = system: Bacillus cereus; assay: Antimicrobial activity against clinical isolates Bacillus cereus by two fold broth microdilution method; assay type: functional
[4] = system: Staphylococcus aureus; assay: Antimicrobial activity against clinical isolates Staphylococcus aureus by two fold broth microdilution method; assay type: functional
[5] = system: Vibrio parahaemolyticus; assay: Antimicrobial activity against Vibrio parahaemolyticus ATCC17802 by two fold broth microdilution method; assay type: functional
[6] = system: Cell membrane; assay: Induction of inner membrane permeabilization in Vibrio parahaemolyticus ATCC17802 assessed as increase in PI fluorescence intensity at 5 times MIC by propidium iodide penetration assay; assay type: cell membranes; details: time <= 200.0 min
[7] = system: Vibrio parahaemolyticus; assay: Bactericidal activity against Vibrio parahaemolyticus ATCC17802 assessed as killing rate at 0.5 X MIC by measuring time limit of detection by bacterial killing kinetic assay; assay type: functional
[8] = system: Cell membrane; assay: Induction of inner membrane permeabilization in Vibrio parahaemolyticus ATCC17802 at 5 times MIC measured upto 200 mins by propidium iodide penetration assay; assay type: cell membranes
[9] = system: Cell membrane; assay: Induction of inner membrane permeabilization in Vibrio parahaemolyticus ATCC17802 assessed as calcein leakage at 5 times MIC by calcein-AM leakage assay; assay type: cell membranes; details: time <= 200.0 min, TDE = time-dependent effect
[10] = system: Vibrio parahaemolyticus; assay: Induction of morphological changes in Vibrio parahaemolyticus ATCC17802 assessed as cellular inclusion leakage incubated at 5 times MIC and measured after 180 mins by scanning electron microscopy based analysis; assay type: functional, organism-based
[11] = system: Peritoneal macrophage; assay: Cytotoxicity against mouse peritoneal macrophage cells incubated for 48 hrs by MTT assay; assay type: toxicity, cell-based; details: dose < 250 µg/ml
[12] = system: Vibrio parahaemolyticus; assay: Induction of morphological changes in Vibrio parahaemolyticus ATCC17802 assessed as surface fibrosis incubated at 5 times MIC and measured after 180 mins by scanning electron microscopy based analysis; assay type: functional, organism-based
[13] = system: Vibrio parahaemolyticus; assay: Induction of morphological changes in Vibrio parahaemolyticus ATCC17802 assessed as massive cell collapse incubated at 5 times MIC and measured after 180 mins by scanning electron microscopy based analysis; assay type: functional, organism-based
[14] = system: HaCaT; assay: Cytotoxicity against human HaCaT cells incubated for 48 hrs by MTT assay; assay type: toxicity, cell-based; details: dose < 250 µg/ml

Row | SMILES | MIC [1] [µg/mL] | MIC [2] [µg/mL] | MIC [3] [µg/mL] | MIC [4] [µg/mL] | MIC [5] [µg/mL] | Activity [6] | Time [7] [min] | Activity [8] | Activity [9] | Activity [10] | Activity [11] | Activity [12] | Activity [13] | Activity [14]
1 | CN[C@H](CC(C)C)C(=O)N[C@H]1C(=O)N[C@@H](CC(N)=O)C(=O)N[C@H]2C(=O)N[C@H]3C(=O)N[C@H](C(=O)N[C@H](C(=O)O)c4cc(O)cc(O)c4-c4cc3ccc4O)[C@H](O)c3ccc(c(Cl)c3)Oc3cc2cc(c3O[C@@H]2O[C@H](CO)[C@@H](O)[C@H](O)[C@H]2O[C@H]2C[C@](C)(N)[C@H](O)[C@H](C)O2)Oc2ccc(cc2Cl)[C@H]1O [VANCOMYCIN] | 75 (≈ 51.8 µM) | 0.59 (≈ 0.407 µM) | > 200 | > 200 | 75 (≈ 51.8 µM) |  |  |  |  |  |  |  |  | 
2 | CC[C@H](C)[C@H](NC(=O)[C@H](C)NC(=O)[C@H](CCCNC(=N)N)NC(=O)[C@H](C)NC(=O)[C@H](CC(C)C)NC(=O)[C@H](CCCCN)NC(=O)[C@H](CCCCN)NC(=O)[C@H](Cc1ccccc1)NC(=O)[C@H](CC(C)C)NC(=O)CNC(=O)[C@H](C)N)C(=O)N[C@@H](CCCCN)C(=O)N[C@@H](CCCCN)C(=O)NCC(=O)N[C@@H](Cc1ccccc1)C(=O)N[C@@H](CCCCN)C(=O)N[C@@H](CC(C)C)C(=O)O (H-AGLFKKLARAIKKGFKL-OH) | 9.38 (≈ 4.96 µM) | 4.69 (≈ 2.48 µM) | 9.38 (≈ 4.96 µM) | 18.8 (≈ 9.92 µM) | 4.69 (≈ 2.48 µM) | Active | >180 |  |  |  |  |  |  | 
3 | CC[C@H](C)[C@H](NC(=O)[C@H](CC(C)C)NC(=O)[C@H](CCCNC(=N)N)NC(=O)[C@H](CC(C)C)NC(=O)[C@H](CC(C)C)NC(=O)[C@H](CCCCN)NC(=O)[C@H](CCCCN)NC(=O)[C@H](Cc1ccccc1)NC(=O)[C@H](CC(C)C)NC(=O)CNC(=O)[C@@H](N)CCCNC(=N)N)C(=O)N[C@@H](CCCCN)C(=O)N[C@@H](CCCCN)C(=O)NCC(=O)N[C@@H](Cc1ccccc1)C(=O)N[C@@H](CCCCN)C(=O)N[C@@H](CCCCN)C(=O)O (H-RGLFKKLLRLIKKGFKK-OH) | 4.69 (≈ 2.26 µM) | 2.34 (≈ 1.13 µM) | 9.38 (≈ 4.52 µM) | 18.8 (≈ 9.04 µM) | 4.69 (≈ 2.26 µM) | Active | 60 | Active | Tde |  |  |  |  | 
4 | CC[C@H](C)[C@H](NC(=O)[C@H](C)NC(=O)[C@H](CCCNC(=N)N)NC(=O)[C@H](C)NC(=O)[C@H](CC(C)C)NC(=O)[C@H](CCCCN)NC(=O)[C@H](CCCCN)NC(=O)[C@H](Cc1ccccc1)NC(=O)[C@H](CC(C)C)NC(=O)CNC(=O)[C@@H](N)CCCNC(=N)N)C(=O)N[C@@H](CCCCN)C(=O)N[C@@H](CCCCN)C(=O)NCC(=O)N[C@@H](Cc1ccccc1)C(=O)N[C@@H](CCCCN)C(=O)N[C@@H](CCCCN)C(=O)O (H-RGLFKKLARAIKKGFKK-OH) | 9.38 (≈ 4.71 µM) | 9.38 (≈ 4.71 µM) | 18.8 (≈ 9.42 µM) | 18.8 (≈ 9.42 µM) | 4.69 (≈ 2.36 µM) | Active | >180 |  |  |  |  |  |  | 
5 | CC[C@H](C)[C@H](NC(=O)[C@H](CCCCN)NC(=O)[C@H](CCCNC(=N)N)NC(=O)[C@H](C)NC(=O)[C@H](CC(C)C)NC(=O)[C@H](CCCCN)NC(=O)[C@H](CCCCN)NC(=O)[C@H](Cc1ccccc1)NC(=O)[C@H](CC(C)C)NC(=O)CNC(=O)[C@@H](N)CCCNC(=N)N)C(=O)N[C@@H](CCCCN)C(=O)N[C@@H](CCCCN)C(=O)NCC(=O)N[C@@H](Cc1ccccc1)C(=O)N[C@@H](CCCCN)C(=O)N[C@@H](CCCCN)C(=O)O (H-RGLFKKLARKIKKGFKK-OH) | 9.38 (≈ 4.58 µM) | 4.69 (≈ 2.29 µM) | 9.38 (≈ 4.58 µM) | 37.5 (≈ 18.3 µM) | 4.69 (≈ 2.29 µM) | Active | >180 |  |  | Active | Dose-Dependent Effect | Active | Active | Dose-Dependent Effect
6 | CC[C@H](C)[C@H](NC(=O)[C@H](C)NC(=O)[C@H](CCCNC(=N)N)NC(=O)[C@H](C)NC(=O)[C@H](CC(C)C)NC(=O)[C@H](CCCCN)NC(=O)[C@H](CCCCN)NC(=O)[C@H](Cc1ccccc1)NC(=O)[C@H](CC(C)C)NC(=O)CNC(=O)[C@H](C)N)C(=O)N[C@@H](C)C(=O)N[C@@H](CCCCN)C(=O)NCC(=O)N[C@@H](Cc1ccccc1)C(=O)N[C@@H](CCCCN)C(=O)N[C@@H](C)C(=O)O (H-AGLFKKLARAIAKGFKA-OH) | 9.38 (≈ 5.24 µM) | 9.38 (≈ 5.24 µM) | 18.8 (≈ 10.5 µM) | 18.8 (≈ 10.5 µM) | 4.69 (≈ 2.62 µM) |  | >180 |  |  |  |  |  |  | 
